Molecular target: T1, human GPR119 (Homo sapiens, UniProt Q8TDV5)
T1 sequence (Q8TDV5 1-335): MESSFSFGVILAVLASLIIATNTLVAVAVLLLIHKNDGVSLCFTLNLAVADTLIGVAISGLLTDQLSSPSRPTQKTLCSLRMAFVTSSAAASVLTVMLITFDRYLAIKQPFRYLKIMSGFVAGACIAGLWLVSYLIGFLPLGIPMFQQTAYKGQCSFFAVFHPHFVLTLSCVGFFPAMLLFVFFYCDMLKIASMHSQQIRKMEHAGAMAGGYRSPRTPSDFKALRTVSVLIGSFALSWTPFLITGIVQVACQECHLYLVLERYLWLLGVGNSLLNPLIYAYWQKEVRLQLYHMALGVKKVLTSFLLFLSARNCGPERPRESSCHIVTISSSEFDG
Test: β-lactamase reporter functional assay for GPR119 agonists (hGPR119 HEK293-CRE beta-lactamase cells)
Assay type: cell-based
Design: host or cells: hGPR119-HEK293-CRE-beta-lactamase cells
Conditions: hGPR119 HEK293-CRE beta-lactamase cells; each line is a separate determination; read-out: Human B-lactamase Functional EC50
Method: The assay for GPR119 agonists utilizes a cell-based (hGPR119HEK293-CRE beta-lactamase) reporter construct where agonist activation of human GPR119 is coupled to beta-lactamase production via a cyclic AMP response element (CRE). GPR119 activity is then measured utilizing a FRET-enabled beta-lactamase substrate, CCF4-AM (Live Blazer FRET-B/G Loading kit, Invitrogen cat #K1027). […] Fluorescence was measured on an EnVision fluorimetric plate reader, excitation 405 nm, emission 460 nm/535 nm. EC50 determinations were made from agonist-response curves analyzed with a curve fitting program using a 4-parameter logistic dose-response equation.

Work on `Cc1c(O[C@@H]2[C@@H]3COC[C@H]2CN(C(=O)OC(C)C)C3)ncnc1N1CCc2cc(S(C)(=O)=O)ccc21` [Example 23, Isopropyl (9-syn)-9-({5-methyl-6-[5-(methylsulfonyl)-2,3-dihydro-1H-indol-1-yl]pyrimidin-4-yl}oxy)-3-oxa-7-azabicyclo[3.3.1]nonane-7-carboxylate] yielded an EC50 of 64.7 nM.

Reference: patent publication US20120052130A1, “GPR 119 MODULATORS” (Pfizer Inc., priority 2009, published 2012)
